Several values for one entry are separate records, joined by “and”; a condition that tells them apart may be missing. Equal entries are not always repeated.
Biological target: T1, PfCRT^Dd2_H97Y (Plasmodium falciparum, UniProt Q8IBZ9, A220S/H97Y/I356T/K76T/M74I/N326S/N75E/Q271E/R371I)
T1 construct: expressed in transfected cells; host or cells: Xenopus laevis oocytes injected with in vitro transcribed RNA (pSP64T)
T1 sequence (Q8IBZ9 1-424 M74I/N75E/K76T/H97Y/A220S/Q271E/N326S/I356T/R371I): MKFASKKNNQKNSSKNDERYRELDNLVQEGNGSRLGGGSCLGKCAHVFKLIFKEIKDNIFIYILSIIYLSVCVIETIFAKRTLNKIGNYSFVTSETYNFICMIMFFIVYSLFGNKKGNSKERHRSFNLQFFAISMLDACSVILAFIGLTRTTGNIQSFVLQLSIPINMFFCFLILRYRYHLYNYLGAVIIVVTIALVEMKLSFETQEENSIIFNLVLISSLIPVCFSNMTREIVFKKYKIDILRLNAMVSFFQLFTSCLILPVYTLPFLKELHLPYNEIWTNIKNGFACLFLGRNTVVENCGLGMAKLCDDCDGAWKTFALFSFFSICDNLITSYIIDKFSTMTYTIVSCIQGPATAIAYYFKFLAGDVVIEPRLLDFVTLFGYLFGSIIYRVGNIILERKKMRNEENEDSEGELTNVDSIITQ
Assay: Verapamil inhibition of PfCRT-mediated CQ and PPQ transport in oocytes, PfCRT^Dd2_H97Y
Assay type: cell-based
Details: individual replicates (S3 Fig)
Experimental: In all cases, the PfCRT-mediated CQ and PPQ transport was inhibited in the presence of 100 μM verapamil (S3 Fig).
Drug transport assays were performed as previously described. Briefly, measurements of radiolabeled drug uptake were made over 1 h, unless otherwise specified. […] Where specified, one or more unlabeled drugs were also present at the indicated concentrations. The direction of drug transport in the assays is from the extracellular medium (pH 6) into the oocyte cytosol (pH 7.2), which corresponds to the efflux of CQ or PPQ from the acidic digestive vacuole (pH 5.2) into the parasite cytosol (pH 7.2). The uptake assays were terminated by removing the oocytes from the reaction medium and washing them three times with 2 mL of ice-cold ND96 buffer. Each oocyte was transferred to a separate scintillation vial and lysed by the addition of 200 μL of a 5% SDS solution. The radioactivity in the sample was measured using a liquid scintillation analyser Tri-Carb 4910 TR (PerkinElmer). Water-injected oocytes were analyzed in parallel as a negative control. The buffer from each condition was measured in duplicate in parallel to each experiment to transform counts per minute into pmol of drug. Drug uptake attributable to PfCRT was determined by subtracting the background uptake from water-injected oocytes from that of PfCRT-expressing oocytes. In all cases, at least three independent experiments were performed on oocytes from different frogs, and for each condition in an experiment, measurements were made from 10 oocytes per treatment.
Supplementary file ppat.1011436.s006.tif: S3 Fig Verapamil inhibits PfCRT-mediated transport of CQ and PPQ. […] Left panels, data is shown as individual biological replicates (coloured symbols) overlaid onto bars representing the Mean ± S.E.M. (error bars). A one-tailed Student’s t-test was performed between untreated (no VP) and treated (+ 100 μM VP) samples, and the obtained p values are shown. Right panels, the uptake in VP-treated samples was divided by the uptake in their corresponding untreated pairs and subtracted from 100% to get the percentage of uptake inhibition mediated by the presence of 100 μM verapamil in the extracellular medium. Error bars are S.E. (TIF) Click here for additional data file.

Structure (SMILES) | PfCRTDd2_H97Y-mediated PPQ transport (50 µM PPQ + 100 µM VP) | PfCRTDd2_H97Y-mediated CQ transport (50 µM CQ + 100 µM VP) | PfCRTDd2_H97Y-mediated CQ transport (50 µM CQ)
Clc1ccc2c(N3CCN(CCCN4CCN(c5ccnc6cc(Cl)ccc56)CC4)CC3)ccnc2c1 [PPQ, piperaquine] | 18.33 pmol oocyte-1 h-1 and 31.33 pmol oocyte-1 h-1 and 27.94 pmol oocyte-1 h-1 and 23.86 pmol oocyte-1 h-1 | – | –
CCN(CC)CCCC(C)Nc1ccnc2cc(Cl)ccc12 (stereo not drawn) [CQ, chloroquine] | – | 2.480 pmol oocyte-1 h-1 and 0.550 pmol oocyte-1 h-1 and 3.310 pmol oocyte-1 h-1 and 4.210 pmol oocyte-1 h-1 | 8.240 pmol oocyte-1 h-1 and 3.560 pmol oocyte-1 h-1 and 5.410 pmol oocyte-1 h-1 and 4.920 pmol oocyte-1 h-1
